Test results from patent US5004565A, “Method and compositions providing enhanced chemiluminescence from 1,2-dioxetanes” (priority 1988, dated 1991).
Where a name gives a salt, the structure may show the parent alone.

Columns and labels:
[1] = system: Alkaline Phosphatase from Human Blood Serum; assay: Triggering of 2c with alkaline phosphatase from human blood serum; type: biochemical; settings: 10^-5 M 2c, 100 μL serum, pH 10.3, 37° C.
Protocol: 1. Triggering the Chemiluminescence of 2c with Alkaline Phosphatase from Human Blood Serum. A stock solution of dioxetane 2c was prepared in dioxane/water (1:1 v/v) by photooxygenation of 1c. A sample of fresh blood was drawn from a healthy donor and the red blood cells removed by centrifugation to provide serum for the experiments. Treatment of 3 mL of a 10^-5 M solution of 2c in 0.75 M 2-amino-2-methyl-1-propanol (221) buffer (pH 10.3) at 37° C. with 100 μL of serum led to the typical intensity vs. time profile shown in FIG. 3 where the serum is injected at time zero. Under these conditions the light intensity reaches a constant level of approximately 2.3×10^4 counts/sec. The background luminescence signal from non-enzymatic hydrolysis of 2c is less than 0.05% of the enzyme-generated value.

[2] = system: alkaline phosphatase from bovine intestinal mucosa; assay: Triggering of 2c with alkaline phosphatase from bovine intestinal mucosa; type: biochemical
From the text: The chemiluminescence quantum yield (.PHI.CL) for the decomposition of dioxetanes is defined as the ratio of einsteins of chemiluminescence emitted to moles of dioxetane decomposed. Sufficient energy is released during the reaction from the reaction enthalpy (ΔHR) plus the Arrhenius activation energy (Ea) to populate the singlet excited state of one of the carbonyl cleavage products. Therefore, the maximum quantum yield is 1.0. Another parameter of interest is the chemiexcitation quantum yield (.PHI.CE) which is defined as the ratio of excited states formed to dioxetane decomposed.
The same procedure as those employed in the measurement of the decay kinetics was used for the determination of chemiluminescence quantum yields with the following modifications. An accurately measured aliquot of a dioxetane stock solution of known concentration was added to 3 mL of the pre-thermostatted organic solvent or aqueous buffer. The reaction was then triggered by adding the appropriate chemical reagent or enzyme. […]
Enzymatic triggering experiments such as those described above were also carried out in Immumlon™ microtitre wells from Dynatech, Inc. made of transparent polystyrene. […] The chemiluminescence was detected at the bottom of the well using a fiber optic connected to the photon-counting luminometer described previously. […]

[3] = type: physicochemical; settings: for t1/2 at 25° C.: table; for t1/2 at 25° C. / k at 25° C.: thermal decomposition in xylene
Protocol: Rates for thermal decomposition of the stable dioxetanes were monitored by the decay of chemiluminescence of aerated solutions. A cylindrical Pyrex vial equipped with magnetic stir bar was filled with 3-4 mL of the reaction solvent, sealed with a Teflon-lined screw cap and placed in the thermostatted sample block of the chemiluminescence-measuring luminometer. Temperature control was provided by an external circulating water bath. Appropriate values for the instrument gain and optical slit size were selected. […]. The vial was sealed with a Teflon-lined screw cap to prevent evaporation when high temperatures were used. Measurement of the signal was begun by opening the shutter. The chemiluminescent decay was generally recorded for at least three half-lives. Calculation of the first-order rate constant (k) from the In (Intensity) vs. time data was performed by a computer program utilizing a standard least-squares treatment. The correlation coefficient (r) was typically at least 0.999 and k varied less than 5% between replicate samples.
Activation parameters for decomposition of the dioxetanes were calculated from plots of In k vs. 1/T (Arrhenius eq.) or In k/t vs. 1/T (Eyring eq.) by a standard least-squares linear regression analysis.

[4] = system: alkaline phosphatase from bovine intestinal mucosa; assay: Triggering of xanthenone phosphate dioxetane with alkaline phosphatase from bovine intestinal mucosa; type: biochemical; settings: 4.2×10^-6 M dioxetane, 1.8 μg/mL protein, pH 10.3, 37° C.
Protocol: Triggering experiments were conducted using alkaline phosphatase from bovine intestinal mucosa [suspension of 5.3 mg of protein (1100 units/mg protein) per mL in 3.2 M (NH4)2 SO4 ] and the phosphate-protected dioxetane at pH 10.3 in 0.75 M 2-amino-2-methyl- 1-propanol buffer. […]. The rate of decay of the emission is a function of enzyme concentration while the total light emission is independent of the enzyme concentration because of turnover of the enzyme.

[5] = system: urease; assay: Triggering of 2a with urease in the presence of fluorescent micelles; type: biochemical; settings: 10 μL of 3×10^-3 M 2a, CTAB, fluorescein surfactant 3, urea
Protocol: 5. Enzymatic Triggering of Hydroxy-Substituted Dioxetane 2a with Urease in the Presence of Fluorescent Micelles. A solution was prepared using 160 mg of CTAB and 12.4 mg of fluorescein surfactant 3 in 200 mL of distilled water. A urea solution was made by dissolving 200 mg of urea in 100 mL of distilled water with EDTA added to give a final concentration of 0.4 mM. The substrate solution for the urease experiments was obtained by mixing 10mL of each stock solution.
Experiments were carried out with urease (Sigma) by incubation at room temperature for periods of 0.5 to 2 hours. […] The intensity of the luminescence provided a measure of the concentration of urease.

[6] = Base-triggered chemiluminescence in DMSO or water; settings: 10^-4 M, DMSO, excess tetra-n-butylammonium hydroxide
[7] = system: firefly luciferase; settings: firefly luciferase system; cited from earlier work

## COC1(c2cccc(OP(=O)(O)O)c2)OOC12C1CC3CC(C1)CC2C3 (stereo not drawn) [dioxetane 2c, 4-Methoxy-4-(3-phosphatephenyl)spiro[1,2-dioxetane-3,2'-adamantane], disodium salt]
[1]
  light intensity at plateau: approximately 2.3×10^4 counts/sec
[2]; 2c, CTAB and 3 in 200 μL 221 buffer, assuming enzyme purity of 10%
  detection of alkaline phosphatase: less than 0.2 attomoles
[2]; with CTAB and 3, 12 pg/mL protein
  period of chemiluminescence: 45 min
[3]
  t1/2 at 25° C.: 19 yrs
  k at 25° C.: 1.19e-09 s⁻¹

## O=P(O)(O)Oc1ccc2c(c1)Oc1ccccc1C21OOC12C1CC3CC(C1)CC2C3 (stereo not drawn)
[4]
  duration of chemiluminescence decay: 3 min

## COC1(c2cccc(OC(C)=O)c2)OOC12C1CC3CC(C1)CC2C3 (stereo not drawn) [dioxetane 2b]
[3]
  t1/2 at 25° C.: 13 yrs
  k at 25° C.: 1.73e-09 s⁻¹

## COC1(c2cccc(O[Si](C)(C)C(C)(C)C)c2)OOC12C1CC3CC(C1)CC2C3 (stereo not drawn)
[3]; General Description dioxetanes
  half-life at 25° C.: 3.8 years
[3]; o-xylene, laboratory bench, several months
  decomposition on standing: no detectable decomposition

## COC1(c2cccc(O)c2)OOC12C1CC3CC(C1)CC2C3 (stereo not drawn) [dioxetane 2a, 4-(3-Hydroxyphenyl)-4-methoxyspiro[1,2-dioxetane-3,2'-adamantane]]
[5]
  chemiluminescence after incubation with urease: produced chemiluminescence
[3]
  t1/2 at 25° C.: 4.1 yrs
  k at 25° C.: 5.38e-09 s⁻¹
[6]
  duration of chemiluminescence decay: several minutes

## CCCCCCCCCCCCCCCC[N+](C)(C)C.[Br-] [CTAB, cetyltrimethylammonium bromide]
[7]
  inhibition of the catalytic activity of the luciferase: complete inhibition
